Measured values: US20210219542A1, “COMPOSITIONS AND METHODS FOR STORAGE OF RED BLOOD CELLS” (THE REGENTS OF THE UNIVERSITY OF COLORADO, A BODY CORPORATE, priority 2018, published 2021)

Experiments:
red blood cells (RBC) [1] = experiment: Storage hemolysis: phosphate-conjugated carbohydrates and adenylates in the supernatant fraction of stored RBCs; type: cell-based; settings: RBC-AS-3 stored at 4° C.; over storage duration; FIG. 6
Protocol: RBC Storage: To ensure sterility, all storage conditions were set up and subsequently sampled in a biosafety cabinet. The RBC-AS-3 suspension was carefully removed from the bag into 3 ml aliquots inside 15 ml conical tubes. Stock concentrations (formulated in house-made AS-3) of ^13C5-Ado or d7-S1P were diluted to final concentrations of 0.1, 1, 10, and 100 μM for Ado or 1, 5, and 10 μM for S1P. Also included was a storage condition consisting of 10 Ado+5 μM S1P. […] The tubes were gently mixed and placed at 4° C. for storage. On days 2, 8, 11, 15, 22, 29, and 43, the tubes were placed back in a biosafety cabinet and 300 μl were sampled. The tubes were placed back at 4° C., and the samples were centrifuged for 10 minutes at 1500 g, 4° C. Supernatants were separated from cells and frozen until analysis (1st analysis after day 22 sampling). LC-MS Metabolomics: Metabolomics analyses were performed as previously described (Nemkov et al. (2015) Amino Acids doi:10.1007/s00726-015-2019-9; Nemkov et al. (2017) Rapid Commun. Mass Spectrom. 31, 663-673). Briefly, samples were placed on ice and diluted with 9 volumes of methanol:acetonitrile:water (5:3:2, v:v) for RBC, or with 24 volumes of methanol:acetonitrile:water (5:3:2, v:v) for supernatants. […] Samples were analyzed in randomized order with a technical mixture injected after every 15 samples to qualify instrument performance. […]

red blood cells (RBC) [2] = experiment: RBC storage in AS-3 with Ado and/or S1P, LC-MS metabolomics of cells and supernatants; type: cell-based; settings: for amount of hypoxanthine in RBC and supernatants / 2,3-DPG levels / ATP production / oxidized glutathione levels / reduced glutathione levels: RBC-AS-3 stored at 4° C.; for amount of hypoxanthine in RBC and supernatants: at least up to a concentration less than 100 μM, at which point Ado becomes a substrate for hypoxanthine production, FIG. 5; for 2,3-DPG levels: first two weeks of storage, FIG. 2; for ATP production: first week of storage, FIG. 3; for oxidized glutathione levels / reduced glutathione levels: supplemented conditions, FIG. 4; for glycolytic activity as measured by the lactate-to-glucose ratio: RBC-AS-3 suspension stored at 4° C., Ado 0.1-100 μM or S1P 1-10 μM or both, versus unsupplemented storage, FIG. 1
Protocol: RBC Storage: To ensure sterility, all storage conditions were set up and subsequently sampled in a biosafety cabinet. The RBC-AS-3 suspension was carefully removed from the bag into 3 ml aliquots inside 15 ml conical tubes. Stock concentrations (formulated in house-made AS-3) of ^13C5-Ado or d7-S1P were diluted to final concentrations of 0.1, 1, 10, and 100 μM for Ado or 1, 5, and 10 μM for S1P. Also included was a storage condition consisting of 10 Ado+5 μM S1P. […] The tubes were gently mixed and placed at 4° C. for storage. On days 2, 8, 11, 15, 22, 29, and 43, the tubes were placed back in a biosafety cabinet and 300 μl were sampled. The tubes were placed back at 4° C., and the samples were centrifuged for 10 minutes at 1500 g, 4° C. Supernatants were separated from cells and frozen until analysis (1st analysis after day 22 sampling). LC-MS Metabolomics: Metabolomics analyses were performed as previously described (Nemkov et al. (2015) Amino Acids doi:10.1007/s00726-015-2019-9; Nemkov et al. (2017) Rapid Commun. Mass Spectrom. 31, 663-673). Briefly, samples were placed on ice and diluted with 9 volumes of methanol:acetonitrile:water (5:3:2, v:v) for RBC, or with 24 volumes of methanol:acetonitrile:water (5:3:2, v:v) for supernatants. Suspensions were vortexed continuously for 30 min at 4° C. Insoluble material was removed by centrifugation at 18,000 g for 10 min at 4° C. and supernatants were isolated for metabolomics analysis by UHPLC-MS. The analytical platform employed a Vanquish UHPLC system (Thermo Fisher Scientific, San Jose, Calif., USA) coupled online to a Q Exactive mass spectrometer (Thermo Fisher Scientific, San Jose, Calif., USA). Samples were resolved over a Kinetex C18 column, 2.1×150 mm, 1.7 μm particle size (Phenomenex, Torrance, Calif., USA) equipped with a guard column (SecurityGuard™ Ultracartridge—UHPLC C18 for 2.1 mm ID Columns—AJO-8782—Phenomenex, Torrance, Calif., USA) using an aqueous phase (A) of water and 0.1% formic acid and a mobile phase (B) of acetonitrile and 0.1% formic acid for positive ion polarity mode, or an aqueous phase (A) of 5% acetonitrile and 1 mM ammonium acetate in water and a mobile phase (B) of 95% acetonitrile and 1 mM ammonium acetate in water for negative ion polarity mode. Samples were eluted from the column using a gradient from 5% to 95% B over 1.6 minutes, followed by an isocratic hold at 95% B for 1.65 minutes, flowed at 450 μl/min and 40° C. The Q Exactive mass spectrometer (Thermo Fisher Scientific, San Jose, Calif., USA) was operated independently in positive or negative ion mode, scanning in Full MS mode (2 μscans) from 60 to 900 m/z at 70,000 resolution, with 4 kV spray voltage, 15 shealth gas, 5 auxiliary gas. Calibration was performed prior to analysis using the Pierce™ Positive and Negative Ion Calibration Solutions (Thermo Fisher Scientific). Acquired data was then converted from .raw to .mzXML file format using Mass Matrix (Cleveland, Ohio, USA). Samples were analyzed in randomized order with a technical mixture injected after every 15 samples to qualify instrument performance. Metabolite assignments, isotopologue distributions, and correction for expected natural abundances of deuterium, ^13C, and ^15N isotopes were performed using MAVEN (Princeton, N.J., USA). The Q Exactive mass spectrometer (Thermo Fisher Scientific, San Jose, Calif., USA) was operated independently in positive or negative ion mode, scanning in Full MS mode (2 μscans) from 60 to 900 m/z at 70,000 resolution, with 4 kV spray voltage, 15 shealth gas, 5 auxiliary gas. Calibration was performed prior to analysis using the Pierce™ Positive and Negative Ion Calibration Solutions (Thermo Fisher Scientific). Acquired data was then converted from .raw to .mzXML file format using Mass Matrix (Cleveland, Ohio, USA). […] Importantly, the use of a standard processed blood unit is an improvement over previous experiments as this material directly represents a realistic storage strategy.

Structure (SMILES): CCCCCCCCCCCCC/C=C/[C@@H](O)[C@@H](N)COP(=O)(O)O [S1P, sphingosine 1-phosphate]
- levels of phosphate-conjugated carbohydrates and adenylates in supernatants (indicative of hemolysis) (red blood cells (RBC) [1]): significantly lower
- amount of hypoxanthine in RBC and supernatants (red blood cells (RBC) [2]): markedly decreased
- 2,3-DPG levels (red blood cells (RBC) [2]): higher 2,3-DPG levels through the first two weeks of storage
- ATP production (red blood cells (RBC) [2]): improved ATP production through the first week of storage
- oxidized glutathione levels (red blood cells (RBC) [2]): lower
- reduced glutathione levels (red blood cells (RBC) [2]): increased
- glycolytic activity as measured by the lactate-to-glucose ratio (red blood cells (RBC) [2]): higher glycolytic activity

Structure (SMILES): Nc1ncnc2c1ncn2[C@@H]1O[C@H](CO)[C@@H](O)[C@H]1O [Ado, adenosine]
- levels of phosphate-conjugated carbohydrates and adenylates in supernatants (indicative of hemolysis) (red blood cells (RBC) [1]): significantly lower
- amount of hypoxanthine in RBC and supernatants (red blood cells (RBC) [2]): markedly decreased
- 2,3-DPG levels (red blood cells (RBC) [2]): higher 2,3-DPG levels through the first two weeks of storage
- ATP production (red blood cells (RBC) [2]): improved ATP production through the first week of storage
- oxidized glutathione levels (red blood cells (RBC) [2]): lower
- reduced glutathione levels (red blood cells (RBC) [2]): increased
- glycolytic activity as measured by the lactate-to-glucose ratio (red blood cells (RBC) [2]): higher glycolytic activity
